In US6972296B2, “Carboxylic acid derivatives that inhibit the binding of integrins to their receptors” (Encysive Pharmaceuticals Inc., priority 1999, dated 2005) one finds IC50 data, which are given here for 68 compounds.

This test has as its target T1, α4β1 integrin (Homo sapiens, UniProt P05556+P13612).
T1 construct: endogenous in cells; host or cells: Ramos cells
Nature of the test: Adhesion of calcein-labeled Ramos cells to CS1 (fibronectin) peptide conjugated ovalbumin. It counts as cell-based. The settings on record: Table 7; Ramos cell adhesion to CS1 conjugated ovalbumin; dose required to give 50% inhibition. A digest of the protocol: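 Plates bearing CS1 fibronectin peptide coupled to ovalbumin (0.5 μg/ml coat, 3% BSA block) received calcein-labelled Ramos cells plus compound (100 μM stated) for 30 min at 37 °C. Buffer was TBS pH 7.5 with 1 mM Mg2+, Ca2+, Mn2+; bound cells quantified by fluorescence after lysis; […].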

T1 sequence (P13612 34-1032): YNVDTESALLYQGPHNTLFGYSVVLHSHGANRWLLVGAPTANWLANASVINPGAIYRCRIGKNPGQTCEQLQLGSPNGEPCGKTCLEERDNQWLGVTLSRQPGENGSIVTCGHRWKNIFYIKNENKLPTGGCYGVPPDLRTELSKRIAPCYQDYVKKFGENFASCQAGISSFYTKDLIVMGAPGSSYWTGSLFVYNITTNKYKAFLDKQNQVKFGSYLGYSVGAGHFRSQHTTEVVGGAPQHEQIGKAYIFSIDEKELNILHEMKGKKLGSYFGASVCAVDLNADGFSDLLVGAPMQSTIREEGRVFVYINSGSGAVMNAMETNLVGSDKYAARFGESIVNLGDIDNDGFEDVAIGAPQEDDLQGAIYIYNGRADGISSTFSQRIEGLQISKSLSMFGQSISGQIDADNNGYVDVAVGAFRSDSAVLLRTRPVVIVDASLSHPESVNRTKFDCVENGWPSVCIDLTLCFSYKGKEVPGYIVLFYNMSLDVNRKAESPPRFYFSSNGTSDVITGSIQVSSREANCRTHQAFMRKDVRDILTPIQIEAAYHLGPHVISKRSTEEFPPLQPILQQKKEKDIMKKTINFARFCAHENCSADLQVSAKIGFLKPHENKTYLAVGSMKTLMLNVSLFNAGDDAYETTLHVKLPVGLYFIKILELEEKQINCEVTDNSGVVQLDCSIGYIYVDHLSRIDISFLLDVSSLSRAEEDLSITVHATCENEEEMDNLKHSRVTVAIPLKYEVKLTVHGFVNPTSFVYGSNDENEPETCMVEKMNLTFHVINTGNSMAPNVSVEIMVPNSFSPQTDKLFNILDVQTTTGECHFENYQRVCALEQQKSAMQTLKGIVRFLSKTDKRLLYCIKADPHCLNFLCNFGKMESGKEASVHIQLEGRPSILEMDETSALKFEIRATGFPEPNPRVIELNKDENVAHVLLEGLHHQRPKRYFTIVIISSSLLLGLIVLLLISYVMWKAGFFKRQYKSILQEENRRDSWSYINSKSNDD
T1 sequence (P05556 21-798): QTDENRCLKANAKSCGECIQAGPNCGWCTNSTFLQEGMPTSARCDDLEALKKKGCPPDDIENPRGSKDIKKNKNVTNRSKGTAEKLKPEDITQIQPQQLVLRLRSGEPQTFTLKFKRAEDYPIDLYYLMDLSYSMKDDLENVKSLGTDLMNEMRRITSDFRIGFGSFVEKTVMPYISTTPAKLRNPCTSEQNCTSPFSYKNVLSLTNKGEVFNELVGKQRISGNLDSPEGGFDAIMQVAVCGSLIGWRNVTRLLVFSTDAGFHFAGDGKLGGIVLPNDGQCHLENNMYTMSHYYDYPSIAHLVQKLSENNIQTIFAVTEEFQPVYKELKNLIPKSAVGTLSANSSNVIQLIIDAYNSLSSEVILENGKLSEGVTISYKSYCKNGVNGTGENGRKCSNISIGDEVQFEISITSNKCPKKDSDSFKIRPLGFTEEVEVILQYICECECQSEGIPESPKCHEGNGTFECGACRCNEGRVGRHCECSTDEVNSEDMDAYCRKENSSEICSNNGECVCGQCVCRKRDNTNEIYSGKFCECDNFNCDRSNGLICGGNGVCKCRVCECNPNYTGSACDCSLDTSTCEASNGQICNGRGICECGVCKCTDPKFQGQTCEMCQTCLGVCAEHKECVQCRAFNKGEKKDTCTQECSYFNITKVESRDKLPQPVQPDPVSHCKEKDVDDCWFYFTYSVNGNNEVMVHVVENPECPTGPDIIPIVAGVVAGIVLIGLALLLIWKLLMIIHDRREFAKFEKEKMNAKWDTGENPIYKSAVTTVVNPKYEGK

With `CCOc1cccc(Cl)c1Cn1cc(C)c(O)c(NC(=O)NC(CC(=O)O)c2ccc(S(C)(=O)=O)cc2)c1=O` (centres unmarked), the half-maximal inhibitory concentration (IC50) is 0.008 µM.

`CCOc1cccc(Cl)c1Cn1cc(C)c(O)c(NC(=O)NC(CC(=O)O)c2ccc3ccccc3c2)c1=O` (centres unmarked): the IC50 was 0.013 µM. Regarding `Cc1cn(Cc2c(C)cccc2Cl)c(=O)c(NC(=O)NC(CC(=O)O)c2ccc(S(C)(=O)=O)cc2)c1O` (centres unmarked), the IC50 is 0.043 µM. Under `O=C(O)CC(NC(=O)Nc1c(O)c2c(n(Cc3ccccc3Cl)c1=O)CCC2)c1ccco1` (centres unmarked) stands 0.005 µM. On to `Cc1cn(Cc2ccccc2Cl)c(=O)c(NC(=O)NC(CC(=O)O)c2cccc(N3CCCCC3)c2)c1O` (centres unmarked), for which the IC50 is 0.022 µM.

Take `Cc1cn(Cc2ccccc2Cl)c(=O)c(NC(=O)NC(CC(=O)O)c2ccc(S(C)(=O)=O)cc2)c1O` (centres unmarked): the 50% inhibitory concentration (IC50) is 0.134 µM. `Cc1cn(Cc2ccccc2Cl)c(=O)c(NC(=O)NC(CC(=O)O)c2ccco2)c1O` (centres unmarked): the half-inhibitory concentration (IC50) is 0.004 µM. On to `Cc1ccc(C(CC(=O)O)NC(=O)Nc2c(O)c(C)cn(Cc3ccccc3Cl)c2=O)o1` (centres unmarked), for which the IC50 is 0.02 µM. Under `Cc1cn(Cc2ccccc2Cl)c(=O)c(NC(=O)NC(CC(=O)O)c2cccc(N3CCCC3)c2)c1O` (centres unmarked) stands 0.01 µM; under `CCOc1ccc(Cl)c(Cl)c1Cn1c2c(c(O)c(NC(=O)N[C@@H](CC(=O)O)c3cccc(OCC4CC4)c3)c1=O)CCC2`, 0.007 µM.

Take `O=C(O)C[C@H](NC(=O)Nc1c(O)c2c(n(Cc3ccccc3Cl)c1=O)CCC2)c1cc(C(F)(F)F)cc(C(F)(F)F)c1`: the half-inhibitory concentration (IC50) was 0.13 µM.

On to `CCOc1cc([C@H](CC(=O)O)NC(=O)Nc2c(O)c3c(n(Cc4c(C)cccc4Cl)c2=O)CCC3)ccc1Cl`, for which the IC50 is 0.025 µM. For the compound `Cc1cccc(Cl)c1Cn1c2c(c(O)c(NC(=O)N[C@@H](CC(=O)O)c3ccc(Cl)c(OC(C)C)c3)c1=O)CCC2`, the IC50 was 0.023 µM. Next, `Cc1ccc([C@H](CC(=O)O)NC(=O)Nc2c(O)c(C)cn(Cc3c(Cl)cccc3OCc3ccccc3)c2=O)cc1`: 0.01 µM. With `Cc1ccc([C@H](CC(=O)O)NC(=O)Nc2c(O)c(C)cn(Cc3cc(S(=O)(=O)N4CCCCC4)ccc3Cl)c2=O)cc1`, the IC50 is 0.027 µM. Turning to `Cc1ccc([C@H](CC(=O)O)NC(=O)Nc2c(O)c(C)cn(Cc3cc(S(=O)(=O)N4CCCC4)ccc3Cl)c2=O)cc1`, the IC50 is 0.015 µM. Consider `Cc1ccc([C@H](CC(=O)O)NC(=O)Nc2c(O)c(C)cn(Cc3cc(C(F)(F)F)ccc3Cl)c2=O)cc1`, for which the concentration for half-maximal inhibition (IC50) was 0.006 µM. Consider `CCOc1ccc(Cl)c(Cn2cc(C)c(O)c(NC(=O)N[C@@H](CC(=O)O)c3ccc(C)cc3)c2=O)c1`, for which the IC50 is 0.004 µM. Under `CCCOc1ccc(Cl)c(Cn2cc(C)c(O)c(NC(=O)N[C@@H](CC(=O)O)c3ccc(C)cc3)c2=O)c1` stands 0.006 µM.

Turning to `Cc1ccc([C@H](CC(=O)O)NC(=O)Nc2c(O)c(C)cn(Cc3c(Cl)cccc3OCC3CCCC3)c2=O)cc1`, the IC50 was 0.02 µM. Regarding `CCOc1cccc(Cl)c1Cn1c2c(c(O)c(NC(=O)N[C@@H](CC(=O)O)c3cccc(CC(C)C)c3)c1=O)CCC2`, the IC50 is 0.004 µM. Under `CCCc1cn(Cc2c(Cl)cccc2OCC)c(=O)c(NC(=O)N[C@@H](CC(=O)O)c2ccc(C)cc2)c1O` stands 0.02 µM; under `CCOc1cccc(Cl)c1Cn1c2c(c(O)c(NC(=O)N[C@@H](CC(=O)O)c3ccc(C)cc3)c1=O)CCC2`, 0.003 µM.

Consider `CCCc1cn(Cc2c(Cl)cccc2OCC)c(=O)c(NC(=O)N[C@@H](CC(=O)O)c2cccc(OCC)c2)c1O`, for which the IC50 was 0.006 µM. For `CCCc1cn(Cc2c(Cl)cccc2OCC)c(=O)c(NC(=O)N[C@@H](CC(=O)O)c2ccccc2)c1O`, the half-maximal inhibitory concentration (IC50) is 0.023 µM. For `CCCc1cn(Cc2c(Cl)cccc2OCC)c(=O)c(NC(=O)N[C@@H](CC(=O)O)c2cccc(OC(C)C)c2)c1O`, the concentration for half-maximal inhibition (IC50) was 0.022 µM.

As for `CCOc1cccc(Cl)c1Cn1c2c(c(O)c(NC(=O)N[C@@H](CC(=O)O)c3cccc(OC(C)C)c3)c1=O)CCC2`, the IC50 was 0.004 µM. Next, `CCOc1ccc2cc([C@H](CC(=O)O)NC(=O)Nc3c(O)c(C)cn(Cc4c(Cl)cccc4OCC)c3=O)ccc2c1`: 0.006 µM; `CCOc1cccc(Cl)c1Cn1c(C)c(C)c(O)c(NC(=O)N[C@@H](CC(=O)O)c2ccccc2)c1=O`: 0.004 µM. As to `CCOc1cccc(Cl)c1Cn1c(C)c(CC)c(O)c(NC(=O)N[C@@H](CC(=O)O)c2ccc(C)cc2)c1=O`, the IC50 was 0.004 µM.

Turning to `CCOc1cccc([C@H](CC(=O)O)NC(=O)Nc2c(O)c(CC)c(C)n(Cc3c(Cl)cccc3OCC)c2=O)c1`, the half-maximal inhibitory concentration (IC50) was 0.004 µM. Under `CCOc1cccc(Cl)c1Cn1c(C)c(CC)c(O)c(NC(=O)N[C@@H](CC(=O)O)c2ccccc2)c1=O` stands 0.004 µM; under `CCOc1cccc(Cl)c1Cn1c(C)c(CC)c(O)c(NC(=O)N[C@@H](CC(=O)O)c2cccc(OC(C)C)c2)c1=O`, 0.005 µM; under `Cc1ccc([C@H](CC(=O)O)NC(=O)Nc2c(O)c(C)cn(Cc3c(Cl)cccc3OCC(C)C)c2=O)cc1`, 0.022 µM.

For `CCCOc1cccc([C@H](CC(=O)O)NC(=O)Nc2c(O)c3c(n(Cc4c(C)cccc4Cl)c2=O)CCC3)c1`, the half-maximal inhibitory concentration (IC50) was 0.012 µM.

In the case of `CCOc1cc([C@H](CC(=O)O)NC(=O)Nc2c(O)c3c(n(Cc4c(C)cccc4Cl)c2=O)CCC3)c(Cl)c(OCC)c1Cl`, the IC50 was 0.5 µM. Take `Cc1cccc(Cl)c1Cn1c2c(c(O)c(NC(=O)N[C@@H](CC(=O)O)c3cccc(OC4CCC4)c3)c1=O)CCC2`: the half-maximal inhibitory concentration (IC50) is 0.02 µM. With `Cc1cccc(Cl)c1Cn1c2c(c(O)c(NC(=O)N[C@@H](CC(=O)O)c3cccc(OC4CC4)c3)c1=O)CCC2`, the half-inhibitory concentration (IC50) was 0.004 µM.

For `Cc1cccc(Cl)c1Cn1c2c(c(O)c(NC(=O)N[C@@H](CC(=O)O)c3cccc(OCC4CC4)c3)c1=O)CCC2`, the IC50 was 0.01 µM. In the case of `CCC(CC)Oc1cccc([C@H](CC(=O)O)NC(=O)Nc2c(O)c3c(n(Cc4c(C)cccc4Cl)c2=O)CCC3)c1`, the 50% inhibitory concentration (IC50) is 0.022 µM. For the compound `CCCOc1cccc(Cl)c1Cn1cc(C)c(O)c(NC(=O)N[C@@H](CC(=O)O)c2ccc(C)cc2)c1=O`, the IC50 was 0.01 µM.

Regarding `Cc1ccc(-c2ccc([C@H](CC(=O)O)NC(=O)Nc3c(O)ccn(Cc4ccccc4Cl)c3=O)cc2)cc1`, the IC50 was 0.04 µM. In the case of `Cc1cccc(-c2ccc([C@H](CC(=O)O)NC(=O)Nc3c(O)ccn(Cc4ccccc4Cl)c3=O)cc2)c1`, the half-inhibitory concentration (IC50) was 0.03 µM.

Regarding `CCOc1cccc(-c2ccc([C@H](CC(=O)O)NC(=O)Nc3c(O)ccn(Cc4ccccc4Cl)c3=O)cc2)c1`, the IC50 was 0.027 µM.

Regarding `CCOc1cc([C@H](CC(=O)O)NC(=O)Nc2c(O)c3c(n(Cc4ccccc4Cl)c2=O)CCC3)cc(Cl)c1OCC`, the IC50 is 0.003 µM. Next, `CC(C)Cc1cccc([C@H](CC(=O)O)NC(=O)Nc2c(O)c3c(n(Cc4ccccc4Cl)c2=O)CCC3)c1`: 0.015 µM; `CCC(CC)Oc1cccc([C@H](CC(=O)O)NC(=O)Nc2c(O)c3c(n(Cc4ccccc4Cl)c2=O)CCC3)c1`: 0.02 µM. For the compound `O=C(O)C[C@H](NC(=O)Nc1c(O)c2c(n(Cc3ccccc3Cl)c1=O)CCC2)c1cccc(OC2CCC2)c1`, the 50% inhibitory concentration (IC50) was 0.017 µM. Take `Cn1ccc2ccc([C@H](CC(=O)O)NC(=O)Nc3c(O)c4c(n(Cc5ccccc5Cl)c3=O)CCC4)cc21`: the concentration for half-maximal inhibition (IC50) was 0.003 µM. Turning to `COc1ccc2cc([C@H](CC(=O)O)NC(=O)Nc3c(O)c4c(n(Cc5ccccc5Cl)c3=O)CCC4)ccc2c1`, the IC50 was 0.003 µM. Turning to `CCOc1ccc2cc([C@H](CC(=O)O)NC(=O)Nc3c(O)c4c(n(Cc5ccccc5Cl)c3=O)CCC4)ccc2c1`, the concentration for half-maximal inhibition (IC50) was 0.015 µM.

With `O=C(O)C[C@H](NC(=O)Nc1c(O)c2c(n(Cc3ccccc3Cl)c1=O)CCC2)c1ccc(C(F)(F)F)cc1`, the IC50 was 0.018 µM. Take `O=C(O)C[C@H](NC(=O)Nc1c(O)c2c(n(Cc3ccccc3Cl)c1=O)CCC2)c1cccc(C(F)(F)F)c1`: the 50% inhibitory concentration (IC50) is 0.01 µM. In the case of `CCOc1c(Cl)ccc([C@H](CC(=O)O)NC(=O)Nc2c(O)c3c(n(Cc4ccccc4Cl)c2=O)CCC3)c1Cl`, the IC50 is 0.225 µM.

Take `CCCOc1cccc([C@H](CC(=O)O)NC(=O)Nc2c(O)c3c(n(Cc4ccccc4Cl)c2=O)CCC3)c1`: the IC50 is 0.015 µM. On to `CCOc1cc([C@H](CC(=O)O)NC(=O)Nc2c(O)c3c(n(Cc4ccccc4Cl)c2=O)CCC3)ccc1Cl`, for which the IC50 is 0.03 µM. Take `COc1ccc(-c2ccc([C@H](CC(=O)O)NC(=O)Nc3c(O)c(C)cn(Cc4ccccc4Cl)c3=O)cc2)cc1`: the IC50 is 0.023 µM. Turning to `Cc1cn(Cc2ccccc2Cl)c(=O)c(NC(=O)N[C@@H](CC(=O)O)c2ccc3ccn(C)c3c2)c1O`, the 50% inhibitory concentration (IC50) is 0.004 µM.

Regarding `Cc1ccccc1-c1ccc([C@H](CC(=O)O)NC(=O)Nc2c(O)c(C)cn(Cc3ccccc3Cl)c2=O)cc1`, the IC50 was 0.055 µM. Next, `COc1ccccc1-c1ccc([C@H](CC(=O)O)NC(=O)Nc2c(O)c(C)cn(Cc3ccccc3Cl)c2=O)cc1`: 0.025 µM. Consider `CCOc1ncc([C@H](CC(=O)O)NC(=O)Nc2c(O)c(C)cn(Cc3ccccc3Cl)c2=O)c(OCC)n1`, for which the IC50 is 0.013 µM. Under `COc1ccccc1-c1cccc([C@H](CC(=O)O)NC(=O)Nc2c(O)c(C)cn(Cc3ccccc3Cl)c2=O)c1` stands 0.015 µM.

In the case of `COc1cccc(OC)c1-c1ccc([C@H](CC(=O)O)NC(=O)Nc2c(O)c(C)cn(Cc3ccccc3Cl)c2=O)cc1`, the IC50 is 0.04 µM. `COc1ccn(Cc2ccccc2Cl)c(=O)c1N(C)C(=O)N[C@@H](CC(=O)O)c1ccc(C)cc1`: the half-maximal inhibitory concentration (IC50) is 2 µM. Next, `CCOc1cccc([C@H](CC(=O)O)NC(=O)Nc2c(O)c3c(n(Cc4c(OCC)ccc(Cl)c4Cl)c2=O)CCC3)c1`: 0.003 µM. For `CCOc1ccc(Cl)c(Cl)c1Cn1c2c(c(O)c(NC(=O)N[C@@H](CC(=O)O)c3ccc(C)cc3)c1=O)CCC2`, the IC50 was 0.005 µM. As for `CCOc1ccc(Cl)c(Cl)c1Cn1c2c(c(O)c(NC(=O)N[C@@H](CC(=O)O)c3cccc(OC(C)C)c3)c1=O)CCC2`, the half-maximal inhibitory concentration (IC50) was 0.005 µM. Regarding `CCc1nn(Cc2ccccc2Cl)c(=O)c(NC(=O)N[C@@H](CC(=O)O)c2ccc(C)cc2)c1O`, the IC50 was 0.022 µM.

Usually IC50 stands for the midpoint of a concentration-inhibition curve.
